Structures can show the parent of a compound that is named as a salt.
How the values were obtained:
[1] = compared with dextrorotatory isomer, per EP 281459; cited from earlier work
platelet aggregation = details: enantiomers compared, per EP 281459; cited from earlier work
[2] = compared with Form 1

| compactness of bulk solid [2] | electrostatic behaviour of bulk solid [2] | SMILES | tolerance [1] | platelet aggregation inhibiting activity (platelet aggregation) |
| --- | --- | --- | --- | --- |
|  |  | COC(=O)C(c1ccccc1Cl)N1CCc2sccc2C1 (single isomer, unassigned) [levorotatory isomer] | less well tolerated | less active |
|  |  | COC(=O)[C@H](c1ccccc1Cl)N1CCc2sccc2C1 [clopidogrel hydrogen sulfate, hydrogen sulfate of methyl (+)-(S)-α-(2-chlorophenyl)-4,5,6,7-tetrahydrothieno[3,2-c]pyridine-5-acetate] |  | excellent platelet aggregation inhibiting activity |
| more compact | much less electrostatic than Form 1 | COC(=O)[C@H](c1ccccc1Cl)N1CCc2sccc2C1.O=S(=O)(O)O [Form 2, hydrogen sulfate of methyl (+)-(S)-α-(2-chlorophenyl)-4,5,6,7-tetrahydrothieno[3,2-c]pyridine-5-acetate] |  |  |

Reference: patent publication US6504030B1, “Polymorphic form of clopidogrel hydrogen sulphate” (Sanofi-Synthelabo, priority 1998, dated 2003)
